Results reported in patent publication US20090118350A1, “Biomarkers for Identifying Efficacy of Tegaserod in Patients with Chronic Constipation” (priority 2005, published 2009).

System: patients with chronic constipation
Test: Clinical trial, primary efficacy: mean increase of 1 or more CSBM/week over baseline after 4 weeks of treatment (responders), by subgroup and genotype
Format: in vivo, human
Details: for % Responders: 6-mg bid
Protocol: Introduction. A clinical trial was performed to evaluate the efficacy of tegaserod (Zelmac®/Zelnorm™) at 6 mg bid (12 mg/day) or 2 mg bid (4 mg/day) vs. placebo by measuring the number of complete spontaneous bowel movements (CSBM) during the first 4 weeks of treatment. Secondary objectives included evaluating the number of CSBM during the entire 12-week treatment period, bowel habits, laxative use, and safety and tolerability issues. The clinical trial design consisted of a 2-week baseline period without medication, a 12-week, randomized, double-blind, placebo-controlled treatment period, and a 4-week withdrawal period without study medication. As part of the clinical trial, DNA was collected from patients at screening for pharmacogenetic analysis to evaluate genetic polymorphisms relating to drug targets and disease aetiology.
Samples. A total 1348 patients were randomized as the intent-to-treat (ITT) population. Blood samples from these patients were collected at the time of patient screening and DNA was extracted using the PUREGENE™ DNA Isolation Kit (D-50K). Of these, samples from 738 randomized patients had good quality genotype data for at least half of the 55 SNPs evaluated.
Clinical assessments. […] The primary efficacy endpoint evaluated was the increase of 1 or more CSBM/week over baseline after 4 weeks of treatment. A secondary endpoint evaluated in this genotyping study was RESP12, the increase of 1 of more CSBM/week over baseline after 12 weeks of treatment. Patients were classified as responders if they met these criteria and had completed at least 7 days of treatment. Additional secondary efficacy assessments were evaluated based on the weekly diary assessments, such as bothersome constipation, bothersome abdominal pain, and satisfaction with bowel habits at the end of the 12-week treatment period (using the baseline value as a co-variant for analysis).
Genotyping. A total of 61 polymorphisms in 23 candidate genes were selected for analysis. Genotyping was performed using the TaqMan® technology for most of the assays, while a few were performed in-house using the Third Wave Technologies Invader Assay technique (see TABLE 2 for assay IDs for all evaluated SNPs). Of the 61 SNPs genotyped, 55 yielded good quality, polymorphic genotypes for use in further evaluation.
Statistical analysis. Statistical analysis was performed using SAS version 8.2 (The SAS Institute, Cary, N.C., USA). Analysis methods included Fisher's Exact tests, analysis of Covariance (ANCOVA), logistic regression, and Mantel-Haenzel tests to determine odds ratios and 95% confidence intervals, with significance established at p<0.05. Calculation of linkage disequilibrium was performed using the GOLD (graphical overview of linkage disequilibrium) method described by Abecasis & Cookson, Bioinformatics 16: 182-3 (2000).
Demographic comparisons. TABLE 3 presents the demographic breakdown of the patients in the overall clinical study and those included in this genotype analysis. Distributions were similar between the genotype population and the total patient population. […] Based on these findings, it was decided to limit analysis to the Caucasian population, which accounted for nearly 90% of all patients, to prevent a confounding effect of race on subsequent genotype analyses. Furthermore, the analysis was also limited to those intent-to-treat patients that were treated with tegaserod or placebo for at least 7 days (total of 635 patients).
Comparison of overall response rates. TABLE 4 presents the overall response for the primary efficacy endpoint (a mean increase in 1 or more CSBM/week over baseline after 4 weeks) for tegaserod 6-mg bid compared with placebo for both the overall patient population and the subgroup of patients for which we had genotype data (all races and Caucasians only). […]

[H]/N=C(/NCCCCC)N/N=C/c1c[nH]c2ccc(OC)cc12 [tegaserod, Tegaserod]
% Responders (4 weeks, All Caucasians (ITT, >=7 days), Age <65, M + F): 46% | % Responders (4 weeks, All Caucasians (ITT, >=7 days), Age >=65, M + F): 33% | % Responders (4 weeks, All Caucasians (ITT, >=7 days), Age All, Female): 46% | % Responders (4 weeks, All Caucasians (ITT, >=7 days), Age All, M + F): 45% | % Responders (4 weeks, All Caucasians (ITT, >=7 days), Age All, Male): 37% | % Responders (4 weeks, All genotyped (ITT, >=7 days), Age <65, M + F): 45% | % Responders (4 weeks, All genotyped (ITT, >=7 days), Age >=65, M + F): 50% | % Responders (4 weeks, All genotyped (ITT, >=7 days), Age All, Female): 45% | % Responders (4 weeks, All genotyped (ITT, >=7 days), Age All, M + F): 46% | % Responders (4 weeks, All genotyped (ITT, >=7 days), Age All, Male): 48% | % Responders (4 weeks, All patients (ITT, >=7 days), Age <65, M + F): 45% | % Responders (4 weeks, All patients (ITT, >=7 days), Age >=65, M + F): 35% | % Responders (4 weeks, All patients (ITT, >=7 days), Age All, Female): 45% | % Responders (4 weeks, All patients (ITT, >=7 days), Age All, M + F): 44% | % Responders (4 weeks, All patients (ITT, >=7 days), Age All, Male): 36% | % Responders (4 weeks, Caucasians genotyped (ITT, >=7 days), Age <65, M + F, all genotypes): 46% | % Responders (4 weeks, Caucasians genotyped (ITT, >=7 days), Age >=65, M + F, all genotypes): 47% | % Responders (4 weeks, Caucasians genotyped (ITT, >=7 days), Age All, Female, all genotypes): 45% | % Responders (4 weeks, Caucasians genotyped (ITT, >=7 days), Age All, M + F, all genotypes): 46% | % Responders (4 weeks, Caucasians genotyped (ITT, >=7 days), Age All, Male, all genotypes): 52% | % Responders (4 weeks, ITT Caucasians >=7 days, 0 of 14 SNPs): 32% | % Responders (4 weeks, ITT Caucasians >=7 days, >=1 of 14 SNPs): 53% | % Responders (4 weeks, ITT Caucasians >=7 days, AQP3 (PG ID 1838) genotype CC): 43% | % Responders (4 weeks, ITT Caucasians >=7 days, AQP3 (PG ID 1838) genotype CG): 47% | % Responders (4 weeks, ITT Caucasians >=7 days, AQP3 (PG ID 1838) genotype GG): 71% | % Responders (4 weeks, ITT Caucasians >=7 days, Female (All ages), 0 of the 12 SNPs): 33% | % Responders (4 weeks, ITT Caucasians >=7 days, Female (All ages), 1-12 of the 12 SNPs): 59% | % Responders (4 weeks, ITT Caucasians >=7 days, HTR3B (PG ID 3755) genotype AA): 46% | % Responders (4 weeks, ITT Caucasians >=7 days, HTR3B (PG ID 3755) genotype AC): 44% | % Responders (4 weeks, ITT Caucasians >=7 days, HTR3B (PG ID 3755) genotype CC): 67% | % Responders (4 weeks, ITT Caucasians >=7 days, HTR4 (PG ID 1746) genotype CC): 42% | % Responders (4 weeks, ITT Caucasians >=7 days, HTR4 (PG ID 1746) genotype CT): 44% | % Responders (4 weeks, ITT Caucasians >=7 days, HTR4 (PG ID 1746) genotype TT): 75% | % Responders (4 weeks, ITT Caucasians >=7 days, HTR4 (PG ID 3743) genotype AA): 43% | % Responders (4 weeks, ITT Caucasians >=7 days, HTR4 (PG ID 3743) genotype AC): 46% | % Responders (4 weeks, ITT Caucasians >=7 days, HTR4 (PG ID 3743) genotype CC): 78% | % Responders (4 weeks, ITT Caucasians >=7 days, HTR4 (PG ID 3747) genotype AA): 43% | % Responders (4 weeks, ITT Caucasians >=7 days, HTR4 (PG ID 3747) genotype AT): 45% | % Responders (4 weeks, ITT Caucasians >=7 days, HTR4 (PG ID 3747) genotype TT): 70% | % Responders (4 weeks, ITT Caucasians >=7 days, HTR4 (PG ID 3753) genotype CC): 43% | % Responders (4 weeks, ITT Caucasians >=7 days, HTR4 (PG ID 3753) genotype CT): 44% | % Responders (4 weeks, ITT Caucasians >=7 days, HTR4 (PG ID 3753) genotype TT): 75% | % Responders (4 weeks, ITT Caucasians >=7 days, HTR4 (PG ID 3754) genotype AA): 46% | % Responders (4 weeks, ITT Caucasians >=7 days, HTR4 (PG ID 3754) genotype AT): 42% | % Responders (4 weeks, ITT Caucasians >=7 days, HTR4 (PG ID 3754) genotype TT): 67% | % Responders (4 weeks, ITT Caucasians >=7 days, HTR4 (PG ID 3756) genotype AA): 39% | % Responders (4 weeks, ITT Caucasians >=7 days, HTR4 (PG ID 3756) genotype AC): 46% | % Responders (4 weeks, ITT Caucasians >=7 days, HTR4 (PG ID 3756) genotype CC): 71% | % Responders (4 weeks, ITT Caucasians >=7 days, M + F (<65), 0 of the 12 SNPs): 33% | % Responders (4 weeks, ITT Caucasians >=7 days, M + F (<65), 1-12 of the 12 SNPs): 61% | % Responders (4 weeks, ITT Caucasians >=7 days, M + F (>=65), 0 of the 12 SNPs): 14% | % Responders (4 weeks, ITT Caucasians >=7 days, M + F (>=65), 1-12 of the 12 SNPs): 70% | % Responders (4 weeks, ITT Caucasians >=7 days, M + F (All ages), 0 of the 12 high responder SNPs): 31% | % Responders (4 weeks, ITT Caucasians >=7 days, M + F (All ages), 1-12 of the 12 high responder SNPs): 62% | % Responders (4 weeks, ITT Caucasians >=7 days, MLN (PG ID 1783) genotype CC): 47% | % Responders (4 weeks, ITT Caucasians >=7 days, MLN (PG ID 1783) genotype CT): 40% | % Responders (4 weeks, ITT Caucasians >=7 days, MLN (PG ID 1783) genotype TT): 63% | % Responders (4 weeks, ITT Caucasians >=7 days, Male (All ages), 0 of the 12 SNPs): 20% | % Responders (4 weeks, ITT Caucasians >=7 days, Male (All ages), 1-12 of the 12 SNPs): 82% | % Responders (4 weeks, ITT Caucasians >=7 days, SCNN1A (PG ID 3806) genotype GG): 62% | % Responders (4 weeks, ITT Caucasians >=7 days, SCNN1A (PG ID 3806) genotype GT): 47% | % Responders (4 weeks, ITT Caucasians >=7 days, SCNN1A (PG ID 3806) genotype TT): 36% | % Responders (4 weeks, ITT Caucasians >=7 days, SLC12A2 (PG ID 1842) genotype AA): 69% | % Responders (4 weeks, ITT Caucasians >=7 days, SLC12A2 (PG ID 1842) genotype AG): 27% | % Responders (4 weeks, ITT Caucasians >=7 days, SLC12A2 (PG ID 1842) genotype GG): 51% | % Responders (4 weeks, ITT Caucasians >=7 days, SLC12A2 (PG ID 3801) genotype CC): 75% | % Responders (4 weeks, ITT Caucasians >=7 days, SLC12A2 (PG ID 3801) genotype CT): 27% | % Responders (4 weeks, ITT Caucasians >=7 days, SLC12A2 (PG ID 3801) genotype TT): 52% | % Responders (4 weeks, ITT Caucasians >=7 days, TPH1 (PG ID 1756) genotype GG): 51% | % Responders (4 weeks, ITT Caucasians >=7 days, TPH1 (PG ID 1756) genotype GT): 48% | % Responders (4 weeks, ITT Caucasians >=7 days, TPH1 (PG ID 1756) genotype TT): 36% | % Responders (4 weeks, ITT Caucasians >=7 days, TPH1 (PG ID 3784) genotype CC): 32% | % Responders (4 weeks, ITT Caucasians >=7 days, TPH1 (PG ID 3784) genotype CT): 49% | % Responders (4 weeks, ITT Caucasians >=7 days, TPH1 (PG ID 3784) genotype TT): 50% | rate of response (lower dose 2-mg bid, 4 weeks, compared with placebo and with 6-mg bid): the response was less than that seen for the 6-mg bid dose | Odds Ratio (the two other genotyped SCNN1A SNPs (near 5' end and near 3' end)): > 3.5
